Experimental data reported in ChEMBL document CHEMBL3217664, “Synthesis and biological evaluation of 4-chlorocolchicine derivatives as potent anticancer agents with broad effective dosage ranges” (Medchemcomm, 2012).

Assays:
HCT-116 [1] = assay: Antitumor activity against human HCT116 cells xenografted in BALB/c mouse assessed as tumor growth inhibition at 20 mg/kg/day, iv administered on day 1, 5 and 9 relative to control; type: functional; conditions: HCT-116, 24 h, read-out: TGI
HCT-116 [2] = assay: Antitumor activity against human HCT116 cells xenografted in BALB/c mouse assessed as tumor growth inhibition at 40 mg/kg/day, iv administered on day 1, 5 and 9 relative to control; type: functional; conditions: HCT-116, 24 h, read-out: TGI
Mus musculus [3] = assay: Toxicity in BALB/c mouse assessed as mortality at 20 mg/kg/day, iv administered on day 1, 5 and 9; type: organism-based; set-up: route intravenous; conditions: in vivo
Mus musculus [4] = assay: Toxicity in BALB/c mouse assessed as mortality at 40 mg/kg/day, iv administered on day 1, 5 and 9; type: organism-based; set-up: route intravenous; conditions: in vivo
A549 = assay: Cytotoxicity against human A549 cells after 96 hrs by microplate reader analysis; type: functional, cell-based; conditions: A549, 96 h
HT-29 = assay: Cytotoxicity against human HT-29 cells after 96 hrs by microplate reader analysis; type: functional, cell-based; conditions: HT-29, 96 h
HCT-116 [5] = assay: Cytotoxicity against human HCT116 cells after 96 hrs by microplate reader analysis; type: functional, cell-based; conditions: HCT-116, 96 h
Liver = assay: Metabolic stability in BALB/c mouse liver microsomes at 1 umol/l by LC-MS/MS analysis; type: ADME; conditions: 1 µM
HCT-116 [6] = assay: Antitumor activity against human HCT116 cells xenografted in BALB/c mouse assessed as tumor growth inhibition at 12.5 mg/kg/day, iv administered on day 1, 5 and 9 relative to control; type: functional; conditions: HCT-116, 24 h, read-out: TGI
HCT-116 [7] = assay: Antitumor activity against human HCT116 cells xenografted in BALB/c mouse assessed as tumor growth inhibition at 25 mg/kg/day, iv administered on day 1, 5 and 9 relative to control; type: functional; conditions: HCT-116, 24 h, read-out: TGI
Mus musculus [8] = assay: Toxicity in BALB/c mouse assessed as mortality at 12.5 mg/kg/day, iv administered on day 1, 5 and 9; type: organism-based; set-up: route intravenous; conditions: in vivo
HCT-116 [9] = assay: Antitumor activity against human HCT116 cells xenografted in BALB/c mouse assessed as tumor growth inhibition at 5 mg/kg/day, iv administered on day 1, 5 and 9 relative to control; type: functional; conditions: HCT-116, 24 h, read-out: TGI
HCT-116 [10] = assay: Antitumor activity against human HCT116 cells xenografted in BALB/c mouse assessed as tumor growth inhibition at 10 mg/kg/day, iv administered on day 1, 5 and 9 relative to control; type: functional; conditions: HCT-116, 24 h, read-out: TGI
Mus musculus [11] = assay: Toxicity in BALB/c mouse assessed as mortality at 5 mg/kg/day, iv administered on day 1, 5 and 9; type: organism-based; set-up: route intravenous; conditions: in vivo
Mus musculus [12] = assay: Toxicity in BALB/c mouse assessed as mortality at 10 mg/kg/day, iv administered on day 1, 5 and 9; type: organism-based; set-up: route intravenous; conditions: in vivo
HCT-116 [13] = assay: Antitumor activity against human HCT116 cells xenografted in BALB/c mouse assessed as tumor growth inhibition at 7.5 mg/kg/day, iv administered on day 1, 5 and 9 relative to control; type: functional; conditions: HCT-116, 24 h, read-out: TGI
HCT-116 [14] = assay: Antitumor activity against human HCT116 cells xenografted in BALB/c mouse assessed as tumor growth inhibition at 15 mg/kg/day, iv administered on day 1, 5 and 9 relative to control; type: functional; conditions: HCT-116, 24 h, read-out: TGI
Mus musculus [15] = assay: Toxicity in BALB/c mouse assessed as mortality at 1.875 mg/kg/day, iv administered on day 1, 5 and 9; type: organism-based; set-up: route intravenous; conditions: in vivo
Mus musculus [16] = assay: Toxicity in BALB/c mouse assessed as mortality at 3.75 mg/kg/day, iv administered on day 1, 5 and 9; type: organism-based; set-up: route intravenous; conditions: in vivo
Mus musculus [17] = assay: Toxicity in BALB/c mouse assessed as mortality at 7.5 mg/kg/day, iv administered on day 1, 5 and 9; type: organism-based; set-up: route intravenous; conditions: in vivo
Mus musculus [18] = assay: Toxicity in BALB/c mouse assessed as mortality at 15 mg/kg/day, iv administered on day 1, 5 and 9; type: organism-based; set-up: route intravenous; conditions: in vivo
HCT-116 [19] = assay: Antitumor activity against human HCT116 cells xenografted in BALB/c mouse assessed as tumor growth inhibition at 1.875 mg/kg/day, iv administered on day 1, 5 and 9 relative to control; type: functional; conditions: HCT-116, 24 h, read-out: TGI
HCT-116 [20] = assay: Antitumor activity against human HCT116 cells xenografted in BALB/c mouse assessed as tumor growth inhibition at 3.75 mg/kg/day, iv administered on day 1, 5 and 9 relative to control; type: functional; conditions: HCT-116, 24 h, read-out: TGI
HCT-116 [21] = assay: Antitumor activity against human HCT116 cells xenografted in BALB/c mouse assessed as tumor growth inhibition at 2.5 mg/kg/day, iv administered on day 1, 5 and 9 relative to control; type: functional; conditions: HCT-116, 24 h, read-out: TGI
Mus musculus [22] = assay: Toxicity in BALB/c mouse assessed as mortality at 2.5 mg/kg/day, iv administered on day 1, 5 and 9; type: organism-based; set-up: route intravenous; conditions: in vivo
HCT-116 [23] = assay: Antitumor activity against human HCT116 cells xenografted in BALB/c mouse assessed as tumor growth inhibition at 50 mg/kg/day, iv administered on day 1, 5 and 9 relative to control; type: functional; conditions: HCT-116, 24 h, read-out: TGI
HCT-116 [24] = assay: Antitumor activity against human HCT116 cells xenografted in BALB/c mouse assessed as tumor growth inhibition at 100 mg/kg/day, iv administered on day 1, 5 and 9 relative to control; type: functional; conditions: HCT-116, 24 h, read-out: TGI
Mus musculus [25] = assay: Toxicity in BALB/c mouse assessed as mortality at 50 mg/kg/day, iv administered on day 1, 5 and 9; type: organism-based; set-up: route intravenous; conditions: in vivo
Mus musculus [26] = assay: Toxicity in BALB/c mouse assessed as mortality at 100 mg/kg/day, iv administered on day 1, 5 and 9; type: organism-based; set-up: route intravenous; conditions: in vivo

COc1c(Cl)c2c(c(OC)c1OC)-c1ccc(OC)c(=O)cc1[C@@H](NC(=O)CO)CC2
inhibition in vivo at 20 mg/kg/day (HCT-116 [1]): 43.6%
inhibition in vivo at 40 mg/kg/day (HCT-116 [2]): 66.7%
Activity (Mus musculus [3]): Non-toxic
Activity (Mus musculus [4]): Non-toxic
IC50 (A549): 16.3 nM
IC50 (HT-29): 8 nM
IC50 (HCT-116 [5]): 8.2 nM
Stability (Liver): 1 µL/min/mg

CCC(=O)N[C@H]1CCc2c(Cl)c(OC)c(OC)c(OC)c2-c2ccc(OC)c(=O)cc21
inhibition in vivo at 12.5 mg/kg/day (HCT-116 [6]): 57.3%
inhibition in vivo at 25 mg/kg/day (HCT-116 [7]): 76.1%
Activity (Mus musculus [8]): Non-toxic
IC50 (A549): 7.8 nM
IC50 (HT-29): 3.3 nM
IC50 (HCT-116 [5]): 7.5 nM
Stability (Liver): 302 µL/min/mg

COc1c(Cl)c2c(c(OC)c1OC)-c1ccc(OC)c(=O)cc1[C@@H](NC(=O)C(F)(F)F)CC2
inhibition in vivo at 5 mg/kg/day (HCT-116 [9]): 30.6%
inhibition in vivo at 10 mg/kg/day (HCT-116 [10]): 62.7%
Activity (Mus musculus [11]): Non-toxic
Activity (Mus musculus [12]): Non-toxic
IC50 (A549): 1.8 nM
IC50 (HT-29): 1.5 nM
IC50 (HCT-116 [5]): 1.5 nM
Stability (Liver): 339 µL/min/mg

COc1c(Cl)c2c(c(OC)c1OC)-c1ccc(OC)c(=O)cc1[C@@H](NC(C)=O)CC2
inhibition in vivo at 7.5 mg/kg/day (HCT-116 [13]): 62.6%
inhibition in vivo at 15 mg/kg/day (HCT-116 [14]): 76.5%
Activity (Mus musculus [15]): Non-toxic
Activity (Mus musculus [16]): Non-toxic
Activity (Mus musculus [17]): Non-toxic
Activity (Mus musculus [18]): Non-toxic
Stability (Liver): 28 µL/min/mg
inhibition in vivo at 1.875 mg/kg/day (HCT-116 [19]): 36.7%
inhibition in vivo at 3.75 mg/kg/day (HCT-116 [20]): 56.4%

COc1c(Cl)c2c(c(OC)c1OC)-c1ccc(OC)c(=O)cc1[C@@H](NC(=O)c1cccc(N(C)C)c1)CC2
inhibition in vivo at 5 mg/kg/day (HCT-116 [9]): 25.3%
inhibition in vivo at 2.5 mg/kg/day (HCT-116 [21]): 31.4%
Activity (Mus musculus [11]): Non-toxic
Activity (Mus musculus [22]): Non-toxic
IC50 (A549): 6.4 nM
IC50 (HT-29): 1.4 nM
IC50 (HCT-116 [5]): 1.6 nM
Stability (Liver): 122 µL/min/mg

COc1c(Cl)c2c(c(OC)c1OC)-c1ccc(OC)c(=O)cc1[C@@H](NC(=O)C(C)(C)O)CC2
inhibition in vivo at 50 mg/kg/day (HCT-116 [23]): 58.5%
inhibition in vivo at 100 mg/kg/day (HCT-116 [24]): 67.3%
Activity (Mus musculus [25]): Non-toxic
Activity (Mus musculus [26]): Non-toxic
IC50 (A549): 19.4 nM
IC50 (HT-29): 7.8 nM
IC50 (HCT-116 [5]): 8.1 nM
Stability (Liver): 5 µL/min/mg
